Results as given in PMC4584933, “Establishing the pig as a large animal model for vaccine development against human cancer” (Frontiers in Genetics, 2015).

Legend:
SLA-2*04:01 = assay: Peptide-MHC class I complex stability, scintillation proximity assay (SPA); parameters: species or system pig; conditions: biotinylated recombinant SLA heavy chain, 125I-β2m, excess unlabeled β2m, read every 40 min, number only if t1/2 ≥ 0.5 h, '-' = not stably binding
Procedure, shortened: (§1)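 Biotinylated recombinant heavy chains captured on streptavidin scintillation plates with 125I-β2m and peptide; signal read every 40 min under dissociating conditions with excess unlabeled β2m. Signal duration gives complex half-life; ≥ 0.5 h counted as stable binder.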

SLA-1*04:01 = assay: as above; parameters: species or system pig; conditions: biotinylated recombinant SLA heavy chain, 125I-β2m, excess unlabeled β2m, read every 40 min, number only if t1/2 ≥ 0.5 h, '-' = not stably binding
Procedure, shortened: as §1

SLA-1*07:02 = assay: as above; parameters: species or system pig; conditions: biotinylated recombinant SLA heavy chain, 125I-β2m, excess unlabeled β2m, read every 40 min, number only if t1/2 ≥ 0.5 h, '-' = not stably binding
Procedure, shortened: as §1

PBMCs = assay: In vitro peptide stimulation of porcine PBMCs, IFN-γ release assay (ELISA); type: cell-based, pig; parameters: key to T cell response: “x” indicates that a response was found to this given peptide at least once; conditions: PBMCs of immunized pigs, 2 × 10^5/well, 5 μg/ml peptide, 67.5–70.0 h, IFN-γ ELISA; response = 2-fold increase vs day -2 and at least 25 pg/ml IFN-γ, found at least once; SLA restriction not included
SLA-3*04:01 = assay: Peptide-MHC class I complex stability, scintillation proximity assay (SPA); parameters: species or system pig; conditions: biotinylated recombinant SLA heavy chain, 125I-β2m, excess unlabeled β2m, read every 40 min, number only if t1/2 ≥ 0.5 h, '-' = not stably binding
Procedure, shortened: as §1

SLA-2*05:02 = assay: as above; parameters: species or system pig; conditions: biotinylated recombinant SLA heavy chain, 125I-β2m, excess unlabeled β2m, read every 40 min, number only if t1/2 ≥ 0.5 h, '-' = not stably binding
Procedure, shortened: as §1

| Sequence | Binder (t1/2 ≥ 0.5 h): half-life of peptide-SLA-2*04:01 complex (SLA-2*04:01) | Binder (t1/2 ≥ 0.5 h): half-life of peptide-SLA-1*04:01 complex (SLA-1*04:01) | Binder (t1/2 ≥ 0.5 h): half-life of peptide-SLA-1*07:02 complex (SLA-1*07:02) | T cell response (PBMCs) | Binder (t1/2 ≥ 0.5 h): half-life of peptide-SLA-3*04:01 complex (SLA-3*04:01) | Binder (t1/2 ≥ 0.5 h): half-life of peptide-SLA-2*05:02 complex (SLA-2*05:02) |
| --- | --- | --- | --- | --- | --- | --- |
| VLGYITMAY [IDO125, porcine IDO-derived 9-11mer peptide] | 0.8 h | - (t1/2 (hours) is listed for each of the stably binding peptides (t1/2 ≥ 0.5 h)) | 1.0 h | – | – | – |
| SAAQSSIFQCF [IDO122, porcine IDO-derived 9-11mer peptide] | - (t1/2 (hours) is listed for each of the stably binding peptides (t1/2 ≥ 0.5 h)) | 30.2 h | – | x | – | – |
| RDMANRISAF [RhoC42, porcine RhoC-derived 9-11mer peptide] | - (t1/2 (hours) is listed for each of the stably binding peptides (t1/2 ≥ 0.5 h)) | - (t1/2 (hours) is listed for each of the stably binding peptides (t1/2 ≥ 0.5 h)) | – | – | - (t1/2 (hours) is listed for each of the stably binding peptides (t1/2 ≥ 0.5 h)) | – |
| SLHKALEVF [IDO117, porcine IDO-derived 9-11mer peptide] | – | - (t1/2 (hours) is listed for each of the stably binding peptides (t1/2 ≥ 0.5 h)) | - (t1/2 (hours) is listed for each of the stably binding peptides (t1/2 ≥ 0.5 h)) | – | – | – |
| YADCVLANW [IDO133, porcine IDO-derived 9-11mer peptide] | 1.7 h | 5.4 h | – | x | – | – |
| EIAAASAIKVI [IDO16, porcine IDO-derived 9-11mer peptide] | – | 0.8 h | – | x | – | 12.5 h |
| VQAMVSLRNY [IDO129, porcine IDO-derived 9-11mer peptide] | - (t1/2 (hours) is listed for each of the stably binding peptides (t1/2 ≥ 0.5 h)) | 1.2 h | – | x | – | – |
| CVQAMVSLRNY [IDO9, porcine IDO-derived 9-11mer peptide] | – | - (t1/2 (hours) is listed for each of the stably binding peptides (t1/2 ≥ 0.5 h)) | 3.1 h | – | – | – |
| YPDTDVILMCF [RhoC59, porcine RhoC-derived 9-11mer peptide] | – | 1.0 h | 0.8 h | – | – | – |
| LLDITSSLH [IDO67, porcine IDO-derived 9-11mer peptide] | – | 0.7 h | – | x | – | – |
| NMDILFSFP [IDO85, porcine IDO-derived 9-11mer peptide] | – | 0.8 h | – | x | – | – |
| RTYMPPAHRNF [IDO113, porcine IDO-derived 9-11mer peptide] | - (t1/2 (hours) is listed for each of the stably binding peptides (t1/2 ≥ 0.5 h)) | 1.0 h | – | – | - (t1/2 (hours) is listed for each of the stably binding peptides (t1/2 ≥ 0.5 h)) | - (t1/2 (hours) is listed for each of the stably binding peptides (t1/2 ≥ 0.5 h)) |
| SLESGPSVREF [IDO116, porcine IDO-derived 9-11mer peptide] | – | 0.8 h | – | x | – | – |
| KGDALLQETY [IDO48, porcine IDO-derived 9-11mer peptide] | - (t1/2 (hours) is listed for each of the stably binding peptides (t1/2 ≥ 0.5 h)) | 0.7 h | – | x | – | – |
